Reference: patent US5804603A, “Synthesized β-adrenergic blockers derivatives of guaiacol” (National Science Council, priority 1995, dated 1998)
Where two headings read alike, the source gives them in different places. One block for each compound: values may come before it.

Key:
[1] = tested on: right eye of male Wistar rats; assay: Eye wiping test (pain-producing potency); assay type: in vivo; details: for pain producing potency: eye drops 10^-4 to 10^-2 M, 30 min, FIG. 1
Procedure: The wiping test was performed as described by Szolcsanyiand, Jancso-Gabor. Briefly, the solution or suspension of the test compound and its analogs was made up in 10% ethanol, 5% Tween 80 and then diluted with saline to the required concentrations. Each solution or suspension of 10^-4 M, 10^-3 M, 10^-2 M was dropped into the right eye (vehicle being administered to the left eye as negative control) of male Wistar rats weighing 180-250 g and the total number of protective movements (scratching, wiping of the eye with the foreleg) was counted for 30 minutes. Each test was carried out with a total of 6 rats, and a dose-response curve was obtained from the mean value of each group.

Water solubility = assay type: physicochemical
β-receptor = β-receptor (Cavia porcellus, UniProt H0W3H1); assay: Receptor binding assay, [3H]-dihydroalprenolol, heart ventricle membranes; details: for IC50: FIG. 15 and Table 4
β-receptor, sequence (H0W3H1 1-470): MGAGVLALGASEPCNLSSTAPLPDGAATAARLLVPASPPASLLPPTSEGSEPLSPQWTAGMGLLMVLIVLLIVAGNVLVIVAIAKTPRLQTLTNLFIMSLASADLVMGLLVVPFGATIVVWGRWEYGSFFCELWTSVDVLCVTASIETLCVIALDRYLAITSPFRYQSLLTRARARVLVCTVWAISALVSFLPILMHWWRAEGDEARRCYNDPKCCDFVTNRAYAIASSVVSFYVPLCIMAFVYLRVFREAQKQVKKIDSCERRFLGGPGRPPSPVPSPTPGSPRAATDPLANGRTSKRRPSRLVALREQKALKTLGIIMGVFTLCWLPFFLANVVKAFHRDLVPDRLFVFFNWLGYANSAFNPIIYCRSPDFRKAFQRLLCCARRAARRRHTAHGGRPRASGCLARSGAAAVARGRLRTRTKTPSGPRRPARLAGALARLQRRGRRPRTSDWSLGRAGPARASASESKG
Procedure: Method of receptor binding assay. After punching the heads of guinea pigs, the blood was drained and the heart ventricle immediately removed. The ventricles were placed in 10 vols. of ice-cold buffer (250 mM sucrose, 1 mM Magnesium Chloride, 50 mM Tris-HCl, pH 7.5) and all subsequent procedures were carried out at 4° C. The ventricles were homogenized using a homogenizer 3-4 times. The period of each homogenization took 15 seconds. […] The supernatant was further centrifuged at 10,000 g and the final pellet was resuspended in a small volume of 75 mM Tris buffer containing 25 mM Magnesium Chloride. The membrane protein content was determined by a protein assay dye. The receptor binding assay was initiated by incubating 100 μl of, a membrane protein solution with 50 μl of [^3 H]-dihydroalprenolol(^3 H-DHA) and the competing drugs. Additional buffer was added to increase the reaction volume up to 250 μl. The binding reaction was activated at 25° C. water by constantly shaking for 60 minutes. The binding reaction was stopped by diluting it with 1 ml of ice-cold assay buffer. The solution was then filtered on a Whatman GF/C glass fiber filter paper under vacuum suction. The filters were washed 3 times with ice-cold assay buffer and dried at 60±C. in an oven for 2 hrs. Then 4 ml of scintillation fluid was added and the radioactivity was counted on β-counter.

[2] = tested on: platelet aggregation induced by collagen; assay: Collagen-induced platelet aggregation in platelet rich plasma; assay type: cell-based; details: 10 μg/ml collagen, PRP
Procedure: A monophasic aggregation curve was observed when 10 μg/ml of collagen was added to platelet rich plasma (PRP).

β1 adrenergic receptor [3] = target: T1, β1 adrenergic receptor (Cavia porcellus, UniProt H0W3H1); assay: Antagonism of isoproterenolol on isolated guinea pig right atrium; assay type: cell-based
T1 construct: isolated guinea pig right atrium; from tissue; host or cells: guinea pig right atrium (isolated organ)
T1 sequence (H0W3H1 1-470): as above
Description: (§1) A bath as described in Gen.
(§2) The determination of the pA2 is made from experiments in which a fixed concentration of the antagonist is used along with graded concentrations of an agonist acting on the same receptor. The presence of the antagonist shifts the agonist dose-response curve to the right.

β1 adrenergic receptor [4] = assay: as above; assay type: cell-based
Description: as §1, §2

[5] = tested on: heart rate and blood pressure; assay: Heart rate and blood pressure of anesthetized rats (i.v.); assay type: in vivo
Description: […]. The effect of DZN on heart rate and blood pressure were monitored.
[…]. Exp. Ther., vol. 96, 99-113). The ID50 value is the response of a β drug which produces a response in 50% of […].

in vivo = details: mouse, mice, read-out: LD50 (95% C.L.)
β2 adrenergic receptor = target: T2, β2 adrenergic receptor (Rattus norvegicus, UniProt P10608); assay: Antagonism of isoproterenolol on isolated rat uterus horns; assay type: cell-based
T2 construct: from tissue; host or cells: rat uterus horns (isolated organ, stilbestrol and reserpine pretreated)
T2 sequence (P10608 whole entry): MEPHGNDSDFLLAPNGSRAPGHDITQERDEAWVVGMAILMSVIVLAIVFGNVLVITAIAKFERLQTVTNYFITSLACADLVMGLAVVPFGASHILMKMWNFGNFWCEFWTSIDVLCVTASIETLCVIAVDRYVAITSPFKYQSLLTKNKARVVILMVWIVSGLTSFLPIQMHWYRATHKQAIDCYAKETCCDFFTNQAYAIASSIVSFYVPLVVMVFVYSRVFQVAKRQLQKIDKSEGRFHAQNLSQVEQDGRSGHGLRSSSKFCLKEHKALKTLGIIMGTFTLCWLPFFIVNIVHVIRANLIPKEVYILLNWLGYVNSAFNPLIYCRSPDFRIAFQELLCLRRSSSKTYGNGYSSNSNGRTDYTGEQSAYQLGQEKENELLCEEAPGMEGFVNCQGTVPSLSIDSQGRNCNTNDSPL
Procedure: Female rats were intraperitonealy injected with stilbestrol (1 mg/kg) to elevate the sensitivity of β2 adrenergic receptor in uterus horns. The rats were subsequently administered reserpine to deplete the catecholamine in uterus. The isolated uterus horns were treated with phenoxybenzamine to block the neuronal uptake and the interaction between neuron cells and the adrenergic receptor.

[6] = tested on: acetic acid-induced writhing syndrome; assay: Acetic acid-induced writhing (antinociceptive test); assay type: in vivo, male mice (ddk strain)
Procedure: Following the method described by Koster antinociceptive tests were carried out in male mice after intraperitoneal administration of test solution. […] The test solution was administered by intraperitoneal injection of a single dose 0.2 ml (vehicle administered as control). Twenty minutes after injection, 0.2 ml of 0.7% acetic acid was injected intraperitoneally to induce writhing.

blood vessels = details: mouse and rat; cited from earlier work
isolated portal veins = details: mice; cited from earlier work
[7] = tested on: carrageenin-induced paw edema; details: in vivo; cited from earlier work
platelets = details: cited from earlier work
intraocular pressure = details: in vivo; cited from earlier work

water solubility (Water solubility): watersoluble
EC50 (β-receptor): 3.6 µM
Compound: COc1cc(C=CC(C)=O)ccc1OCC(O)CNC(C)(C)C (racemic) [DZBN, 4-[4'-(2-hydroxy-3-tert-butylaminopropoxy)-3'-methoxyphenyl]-3-buten-2-one]
pain producing potency [1]: lower than that of DZ and zingerone
pungency ([1]; rat, in vivo): lower pungency
IC50 (β-receptor): close to the IC50 values of the well known β-adrenergic agonist Atenolol

Compound: COc1cc(C=CC(C)=O)ccc1OCC(O)CNC(C)C (racemic) [DZN, 4-[4'-(2-hydroxy-3-isopropylaminopropoxy)-3'-methoxyphenyl]-3-buten-2-one]
pain producing potency [1]: lower than that of DZ and zingerone
inhibition of collagen-induced platelet aggregation [2]: dose-dependent inhibition of platelet aggregation
IC100 ([2]; Platelet, FIG. 18, read-out: concentration completely inhibiting platelet aggregation): 250 µM
shift of isoproterenolol concentration-effect curve (β1 adrenergic receptor [3]; guinea pig right atrium): partially shifted to the right
slope of regression (Schild plot), β1 (β1 adrenergic receptor [3]; guinea-pig right atrium): 0.96 ± 0.05
Kb (β1 adrenergic receptor [3]; read-out: pA2, β1 (converted)): 0.00692 µM
Cardioselectivity ratio (β1 adrenergic receptor [4]): 4.26
ED50 ([5]; Rattus norvegicus, iv, anesthetized rats, Litchfield method, read-out: ID50 : heart rate response (95% C.I.)): 0.22 mg/kg
duration of bradycardia ([5]; i.v. 0.1, 0.5, 1.0 mg/kg): over 1 hr
bradycardia ([5]; i.v. 0.1, 0.5, 1.0 mg/kg, FIGS. 3-6): dose-dependent bradycardia
ID50 : heart rate response (95% C.I.) ([5]; i.v., anesthetized rats, Litchfield method, listed as DZH (compound 4)): 0.22 (1.29-0.04) mg/kg
time of slightly reduced blood pressure after injection ([5]; i.v., statistical significance not found): 5 to 10 min
effect on blood pressure induced by isoproterenolol ([5]; rat, in vivo): lowered the blood pressure induced by isoproterenolol
effect on resting heart rate ([5]; rat, in vivo): reduced resting heart rate
LD50 (in vivo; ip): > 1000 mg/kg
LD50 (in vivo; po): > 1000 mg/kg
shift of isoproterenolol concentration-effect curve (β2 adrenergic receptor; 10^-8 -10^-6 M DZN, rat uterus horns): partially shift to the right
slope of regression (Schild plot), β2 (β2 adrenergic receptor; rat uterus): 0.99±0.11
Kb (β2 adrenergic receptor; read-out: pA2, β2 (converted)): 0.0295 µM
Protection ([6]; 1.25 mg/kg i.p., N = 8): 86.06%
Writhes No. (Ave. ± S.E.) ([6]; 1.25 mg/kg i.p., N = 8): 11.17 ± 2.36
ED50 ([6]; Mus musculus, ip, mice, Litchfield and Wilcoxon method, read-out: ED50 (95% C.I.)): 0.11 mg/kg
Potency ratio ([6]; relative to DZ = 1.00): 3.50
EC50 (β-receptor): 1.3 µM
IC50 (β-receptor): close to the IC50 values of the well known β-adrenergic agonist Atenolol

Compound: CCCCC[C@H](O)CC(=O)CCc1ccc(O)c(OC)c1 [Gingerol]
eicosanoid-induced contraction of blood vessels (blood vessels): modulates the eicosanoid-induced contraction of mouse and rat blood vessels
contraction of isolated portal veins (isolated portal veins): suppresses the contraction of isolated portal veins in mice

Compound: CCCCC/C=C/C(=O)CCc1ccc(O)c(OC)c1 [Shogaol]
carrageenin-induced paw edema [7]: inhibitory activity
platelet aggregation (platelets): inhibitory activity

Compound: COc1cc(C=CC(C)=O)ccc1OCC(O)CNC(C)(C)C (centres unmarked) [Vaninolol]
intraocular pressure (IOP) (intraocular pressure): lower the intraocular pressure (IOP)
